Where two headings read alike, the source gives them in different places.
What was measured:
Mcl-1 = Mcl-1 (Homo sapiens (Human), UniProt Q07820); test: TR-FRET binding assay, FITC-Bak peptide and MBP-tagged Mcl-1; settings: read-out: Ki for Inhibition of Mcl-1 by TR-FRET assay
Method: Compounds are diluted in DMSO in a 16-point, semilog serial dilution scheme. […] The plate was mixed and incubated for 3 hours at room temperature. […] TR-FRET signal is plotted and IC50 and Ki values are calculated in the same manner as the fluorescence polarization anisotropy based competition assays.

[1] = system: H929 human cancer cell lines; test: Cellular viability / proliferation (Cell TiterGlo, 72 h); type: cell-based
In short: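 Plating is at 1,000 cells/well in 10% FBS medium; after 24 h, compound is added as a 2-fold series starting at 50 μM with under 1% DMSO.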

[2] = Homo sapiens, NCI-H929, 72 h, read-out: GI50 on cellular proliferation of H929 human cancer cell lines, H929 cells, 72 h, Cell TiterGlo, 10% FBS

Chain of Mcl-1 (Q07820 172-327): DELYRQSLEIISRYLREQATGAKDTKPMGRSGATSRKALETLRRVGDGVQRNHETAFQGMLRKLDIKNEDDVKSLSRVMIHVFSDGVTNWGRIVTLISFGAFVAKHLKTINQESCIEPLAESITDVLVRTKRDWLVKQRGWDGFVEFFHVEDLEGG

## Cc1cc(OCCCc2c3n(c4c(-c5c(C)nn(C)c5C)c(Cl)ccc24)[C@H](C)CN(c2c(C)ccc4cc(C(=O)O)n(C)c24)C3=O)cc(C)c1Cl [Example 726, (R)-7-(7-Chloro-10-(3-(4-chloro-3,5-dimethylphenoxy)propyl)-4-methyl-1-oxo-6-(1,3,5-trimethyl-1H-pyrazol-4-yl)-3,4-dihydropyrazino[1,2-a]indol-2(1H)-yl)-1,6-dimethyl-1H-indole-2-carboxylic acid]
Mcl-1
  Ki: < 0.2 nM
[1]; [2]
  GI50: 260 nM

## Cc1cc(OCCCc2c3n(c4c(-c5c(C)nn(C)c5C)c(Cl)ccc24)[C@H](C)CN(c2cn(CCCl)c4ccc(-c5ncn(C)n5)cc24)C3=O)cc(C)c1Cl [Example 529, (R)-7-Chloro-10-(3-(4-chloro-3,5-dimethylphenoxy)propyl)-2-(1-(2-chloroethyl)-5-(1-methyl-1H-1,2,4-triazol-3-yl)-1H-indol-3-yl)-4-methyl-6-(1,3,5-trimethyl-1H-pyrazol-4-yl)-3,4-dihydropyrazino[1,2-a]indol-1(2H)-one]
Mcl-1
  Ki: < 0.2 nM
[1]; [2]
  GI50: 520 nM

## Cc1ccc(Cn2cc(C(=O)O)c3cccc(N4C[C@@H](C)n5c(c(CCCOc6cc(C)c(Cl)c(C)c6)c6ccc(Cl)c(-c7c(C)nn(C)c7C)c65)C4=O)c32)nc1 (single isomer, unassigned) [Example 501]
Mcl-1
  Ki: 0.68 nM
[1]; [2]
  GI50: 1200 nM

## Cc1cc(OCCCc2c3n(c4c(-c5c(C)nn(C)c5C)c(Cl)ccc24)[C@H](C)CN(c2cn(C[C@H]4CCC[N+]4(C)C)c4ccc(C(=O)O)cc24)C3=O)cc(C)c1Cl [Example 667, (R)-2-((5-carboxy-3-((R)-7-chloro-10-(3-(4-chloro-3,5-dimethylphenoxy)propyl)-4-methyl-1-oxo-6-(1,3,5-trimethyl-1H-pyrazol-4-yl)-3,4-dihydropyrazino[1,2-a]indol-2(1H)-yl)-1H-indol-1-yl)methyl)-1,1-dimethylpyrrolidin-1-ium]
Mcl-1
  Ki: < 0.2 nM
[1]; H929 cells, 72 h, Cell TiterGlo, 10% FBS, read-out: GI50 on cellular proliferation of H929 human cancer cell lines
  GI50: 8200 nM

## Cc1nn(C)c(C)c1-c1c(Cl)ccc2c(CCCOc3cccc4ccccc34)c3n(c12)[C@H](C)CN(c1cn(C)c2ccc(C(=O)O)cc12)C3=O [Example 545, (R)-3-(7-Chloro-4-methyl-10-(3-(naphthalen-1-yloxy)propyl)-1-oxo-6-(1,3,5-trimethyl-1H-pyrazol-4-yl)-3,4-dihydropyrazino[1,2-a]indol-2(1H)-yl)-1-methyl-1H-indole-5-carboxylic acid]
Mcl-1
  Ki: 0.39 nM
[1]; [2]
  GI50: 560 nM
